Laboratory results from patent publication US20250282768A1 (Janssen Pharmaceutica NV, priority 2022, published 2025).

These compounds were tested on p-IKKa levels in L363 (NIK translocated multiple myeloma) cells (assay: Assay 2: Effect of compounds on p-IKKa levels in L363 (NIK translocated multiple myeloma) cells). Conditions: Homo sapiens, L-363, 6 h, read-out: Assay 2 IC50 (nM), p-IKKa (Ser 176/180) in BAFF stimulated L363 cells with MG132, 6 h; average if tested more than once.
Format: cell-based
Method in brief: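 L363 cells incubated overnight ± 250 ng/ml BAFF, then 6 h at 37 °C with compound (0.3% DMSO) ± 10 μM MG132. Lysates assayed for p-IKKa (Ser176/180) by AlphaLISA SureFire. IC50 from sigmoidal fit of % inhibition normalized to BAFF/MG132-stimulated and unstimulated controls.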
For `CN1C(=O)[C@](O)(c2cc(-c3cccc(-c4ccnc(Nc5cnn(C)c5Cl)n4)n3)no2)[C@H]2C[C@H]21` [Example 287, (1R,4R,5S)-4-(3-(6-(2-((5-Chloro-1-methyl-1H-pyrazol-4-yl)amino)pyrimidin-4-yl)pyridin-2-yl)isoxazol-5-yl)-4-hydroxy-2-methyl-2-azabicyclo[3.1.0]hexan-3-one], the IC50 was 50 to 500 nM.
`CN1CC[C@@](O)(c2cn(-c3cccc(-c4ccnc(Nc5cn(C)nc5F)n4)n3)nn2)C1=O` [Example 325, (R)-3-(1-(6-(2-((3-Fluoro-1-methyl-1H-pyrazol-4-yl)amino)pyrimidin-4-yl)pyridin-2-yl)-1H-1,2,3-triazol-4-yl)-3-hydroxy-1-methylpyrrolidin-2-one] was tested, and the IC50 was 50 to 500 nM.
For `CN1CC[C@@](O)(c2cc(-c3cccc(-c4ccnc(Nc5cc(CO)n(C)n5)n4)n3)no2)C1=O` [Example 280, (R)-3-Hydroxy-3-(3-(6-(2-((5-(hydroxymethyl)-1-methyl-1H-pyrazol-3-yl)amino)pyrimidin-4-yl)pyridin-2-yl)isoxazol-5-yl)-1-methylpyrrolidin-2-one], the IC50 was 50 to 500 nM.
Compound `CN1CC[C@@](O)(c2cc(-c3cccc(-c4ccnc(Nc5cnn(C)c5F)n4)n3)no2)C1=O` [Example 329, (R)-3-(3-(6-(2-((5-Fluoro-1-methyl-1H-pyrazol-4-yl)amino)pyrimidin-4-yl)pyridin-2-yl)isoxazol-5-yl)-3-hydroxy-1-methylpyrrolidin-2-one] has an IC50 of under 50 nM.
With `CN1CC[C@@](O)(c2cc(-c3cccc(-c4ccnc(Nc5ccc(-c6nncn6C)cn5)n4)n3)no2)C1=O` [Example 308, (R)-3-Hydroxy-1-methyl-3-(3-(6-(2-((5-(4-methyl-4H-1,2,4-triazol-3-yl)pyridin-2-yl)amino)pyrimidin-4-yl)pyridin-2-yl)isoxazol-5-yl)pyrrolidin-2-one] the IC50 was 50 to 500 nM.
Work on `Cc1ncc(Nc2nccc(-c3cccc(-c4cc([C@]5(O)CCN(C)C5=O)on4)n3)n2)cn1` [Example 291, (R)-3-Hydroxy-1-methyl-3-(3-(6-(2-((2-methylpyrimidin-5-yl)amino)pyrimidin-4-yl)pyridin-2-yl)isoxazol-5-yl)pyrrolidin-2-one] yielded an IC50 of 50 to 500 nM.
`CN1CC[C@@](O)(c2cc(-c3cc(C(F)(F)F)cc(-c4ccnc(Nc5ccn(C)n5)n4)n3)no2)C1=O` [Example 2, (R)-3-Hydroxy-1-methyl-3-(3-(6-(2-((1-methyl-1H-pyrazol-3-yl)amino)pyrimidin-4-yl)-4-(trifluoromethyl)pyridin-2-yl)isoxazol-5-yl)pyrrolidin-2-one] showed an IC50 of under 50 nM.
For `Cc1cnccc1Nc1nccc(-c2cccc(-c3cc([C@]4(O)CCN(C)C4=O)on3)n2)n1` [Example 246, (R)-3-Hydroxy-1-methyl-3-(3-(6-(2-((3-methylpyridin-4-yl)amino)pyrimidin-4-yl)pyridin-2-yl)isoxazol-5-yl)pyrrolidin-2-one], the IC50 was over 500 nM.
In the case of `CN1CC[C@@](O)(c2cc(-c3cccc(-c4ccnc(Nc5cnn6ncccc56)n4)n3)no2)C1=O` [Example 216, (R)-3-Hydroxy-1-methyl-3-(3-(6-(2-(pyrazolo[1,5-b]pyridazin-3-ylamino)pyrimidin-4-yl)pyridin-2-yl)isoxazol-5-yl)pyrrolidin-2-one], the IC50 is reported as under 50 nM.
In the case of `[2H]C1([2H])N(C)C(=O)[C@](O)(c2cc(-c3cccc(-c4ccnc(Nc5cnn(CC)c5)n4)n3)no2)C1([2H])[2H]` [Example 7, (R)-3-(3-(6-(2-((1-Ethyl-1H-pyrazol-4-yl)amino)pyrimidin-4-yl)pyridin-2-yl)isoxazol-5-yl)-3-hydroxy-1-methylpyrrolidin-2-one-4,4,5,5-d4], the IC50 is reported as under 50 nM.
For `C[C@H](Nc1nccc(-c2cccc(-c3cc([C@]4(O)CCN(C)C4=O)on3)n2)n1)c1cnn(C)c1` (single isomer, unassigned) [Example 70], the IC50 was over 500 nM.
Work on `CN1CC[C@@](O)(c2cnn(-c3cccc(-c4ccnc(Nc5cn(CC(F)F)nc5OC5CC5)n4)n3)c2)C1=O` [Example 97, (R)-3-(1-(6-(2-((3-Cyclopropoxy-1-(2,2-difluoroethyl)-1H-pyrazol-4-yl)amino)pyrimidin-4-yl)pyridin-2-yl)-1H-pyrazol-4-yl)-3-hydroxy-1-methylpyrrolidin-2-one] yielded an IC50 of 50 to 500 nM.
`Cc1ncccc1Nc1nccc(-c2cccc(-c3cc([C@]4(O)CCN(C)C4=O)no3)n2)n1` [Example 111, (R)-3-Hydroxy-1-methyl-3-(5-(6-(2-((2-methylpyridin-3-yl)amino)pyrimidin-4-yl)pyridin-2-yl)isoxazol-3-yl)pyrrolidin-2-one] showed an IC50 of under 50 nM.
`Cc1cnnc(Nc2nccc(-c3cccc(-c4cc([C@]5(O)CCN(C)C5=O)on4)n3)n2)n1` [Example 265, (R)-3-Hydroxy-1-methyl-3-(3-(6-(2-((5-methyl-1,2,4-triazin-3-yl)amino)pyrimidin-4-yl)pyridin-2-yl)isoxazol-5-yl)pyrrolidin-2-one] showed an IC50 of over 500 nM.
`CN1CC(F)(F)[C@@](O)(c2cc(-c3cccc(-c4ccnc(Nc5cnn6c5COCC6)n4)n3)no2)C1=O` [Example 110, (R)-3-(3-(6-(2-((6,7-Dihydro-4H-pyrazolo[5,1-c][1,4]oxazin-3-yl)amino)pyrimidin-4-yl)pyridin-2-yl)isoxazol-5-yl)-4,4-difluoro-3-hydroxy-1-methylpyrrolidin-2-one] gave an IC50 of under 50 nM.
Compound `CN(C)Cc1cc(Nc2nccc(-c3cccc(-c4cc([C@]5(O)CCN(C)C5=O)on4)n3)n2)nn1C` [Example 428, (R)-3-(3-(6-(2-((5-((Dimethylamino)methyl)-1-methyl-1H-pyrazol-3-yl)amino)pyrimidin-4-yl)pyridin-2-yl)isoxazol-5-yl)-3-hydroxy-1-methylpyrrolidin-2-one] has an IC50 of 50 to 500 nM.
Compound `CN(C)CCn1nccc1Nc1nccc(-c2cccc(-c3cc([C@]4(O)CCN(C)C4=O)on3)n2)n1` [Example 306, (R)-3-(3-(6-(2-((1-(2-(Dimethylamino)ethyl)-1H-pyrazol-5-yl)amino)pyrimidin-4-yl)pyridin-2-yl)isoxazol-5-yl)-3-hydroxy-1-methylpyrrolidin-2-one] has an IC50 of over 500 nM.
`COc1nn(C(CO)CO)cc1Nc1nccc(-c2cccc(-c3cc([C@]4(O)CCN(C)C4=O)on3)n2)n1` [Example 9, (R)-3-(3-(6-(2-((1-(1,3-Dihydroxypropan-2-yl)-3-methoxy-1H-pyrazol-4-yl)amino)pyrimidin-4-yl)pyridin-2-yl)isoxazol-5-yl)-3-hydroxy-1-methylpyrrolidin-2-one] was tested, and the IC50 was 50 to 500 nM.
Work on `CN1CC[C@@](O)(c2cc(-c3cccc(-c4ccnc(Nc5cnn(CC(F)F)c5)n4)n3)no2)C1=O` [Example 56, (R)-3-(3-(6-(2-((1-(2,2-Difluoroethyl)-1H-pyrazol-4-yl)amino)pyrimidin-4-yl)pyridin-2-yl)isoxazol-5-yl)-3-hydroxy-1-methylpyrrolidin-2-one] yielded an IC50 of under 50 nM.
`C[C@@H](Nc1nccc(-c2cccc(-c3cc([C@]4(O)CCN(C)C4=O)on3)n2)n1)c1cnc2ccccn12` (single isomer, unassigned) [Example 160] showed an IC50 of over 500 nM.
For `CN1CC[C@@](O)(c2cc(-c3cccc(-c4ccnc(Nc5cnc6n5CCOC6)n4)n3)no2)C1=O` [Example 313, (R)-3-(3-(6-(2-((5,6-Dihydro-8H-imidazo[2,1-c][1,4]oxazin-3-yl)amino)pyrimidin-4-yl)pyridin-2-yl)isoxazol-5-yl)-3-hydroxy-1-methylpyrrolidin-2-one], the IC50 was over 500 nM.
For `Cc1cncc(Nc2nccc(-c3cccc(-c4cc([C@]5(O)CCN(C)C5=O)on4)n3)n2)c1` [Example 245, (R)-3-Hydroxy-1-methyl-3-(3-(6-(2-((5-methylpyridin-3-yl)amino)pyrimidin-4-yl)pyridin-2-yl)isoxazol-5-yl)pyrrolidin-2-one], the IC50 was over 500 nM.
Work on `CN1CC[C@@](O)(c2cc(-c3cccc(-c4ccnc(Nc5cn(C)nc5F)n4)n3)no2)C1=O` [Example 262, (R)-3-(3-(6-(2-((3-Fluoro-1-methyl-1H-pyrazol-4-yl)amino)pyrimidin-4-yl)pyridin-2-yl)isoxazol-5-yl)-3-hydroxy-1-methylpyrrolidin-2-one] yielded an IC50 of under 50 nM.
`CN1CC[C@@](O)(c2cc(-c3cccc(-c4ccnc(NC5CCSC5)n4)n3)no2)C1=O` (mixture of isomers) [Example 456, (3R)-3-Hydroxy-1-methyl-3-(3-(6-(2-((tetrahydrothiophen-3-yl)amino)pyrimidin-4-yl)pyridin-2-yl)isoxazol-5-yl)pyrrolidin-2-one] showed an IC50 of 50 to 500 nM.
`CN1CC[C@@](O)(c2cc(-c3cccc(-c4ccnc(-n5cc(N)cn5)n4)n3)no2)C1=O` [Example 39, (R)-3-(3-(6-(2-(4-Amino-1H-pyrazol-1-yl)pyrimidin-4-yl)pyridin-2-yl)isoxazol-5-yl)-3-hydroxy-1-methylpyrrolidin-2-one] showed an IC50 of over 500 nM.
With `Cc1c(Nc2nccc(-c3cccc(-c4cc([C@]5(O)CCN(C)C5=O)on4)n3)n2)cnn1CC(F)F` [Example 225, (R)-3-(3-(6-(2-((1-(2,2-Difluoroethyl)-5-methyl-1H-pyrazol-4-yl)amino)pyrimidin-4-yl)pyridin-2-yl)isoxazol-5-yl)-3-hydroxy-1-methylpyrrolidin-2-one] the IC50 was under 50 nM.
For `Cc1ccc(Nc2nccc(-c3cccc(-c4cc([C@]5(O)CCN(C)C5=O)on4)n3)n2)nn1` [Example 256, (R)-3-Hydroxy-1-methyl-3-(3-(6-(2-((6-methylpyridazin-3-yl)amino)pyrimidin-4-yl)pyridin-2-yl)isoxazol-5-yl)pyrrolidin-2-one], the IC50 was 50 to 500 nM.
For `Cc1ccncc1Nc1nccc(-c2cccc(-c3cc([C@]4(O)CCN(C)C4=O)on3)n2)n1` [Example 333, (R)-3-Hydroxy-1-methyl-3-(3-(6-(2-((4-methylpyridin-3-yl)amino)pyrimidin-4-yl)pyridin-2-yl)isoxazol-5-yl)pyrrolidin-2-one], the IC50 was 50 to 500 nM.
In the case of `C[C@H](CF)Nc1nccc(-c2cccc(-c3cc([C@]4(O)CCN(C)C4=O)on3)n2)n1` [Example 353, (R)-3-(3-(6-(2-(((R)-1-Fluoropropan-2-yl)amino)pyrimidin-4-yl)pyridin-2-yl)isoxazol-5-yl)-3-hydroxy-1-methylpyrrolidin-2-one], the IC50 is reported as 50 to 500 nM.
